From PMC4029159 (Journal of medicinal chemistry, 2013)
Where “and” joins values, the source holds several entries; their conditions need not be identical. Equal values may be shown once.

Columns and labels:
LNCaP = assay: Cell viability assay; assay type: cell-based
Jurkat J.γ = assay: Cell viability assay; assay type: cell-based
MMP14 = MMP14 (Homo sapiens, UniProt P50281); assay: MMP assay; assay type: biochemical; conditions: 10µM
MMP2 = MMP2 (Homo sapiens, UniProt P08253); assay: MMP assay; assay type: biochemical; conditions: 10µM
MMP2, sequence (P08253 110-446 limits assumed): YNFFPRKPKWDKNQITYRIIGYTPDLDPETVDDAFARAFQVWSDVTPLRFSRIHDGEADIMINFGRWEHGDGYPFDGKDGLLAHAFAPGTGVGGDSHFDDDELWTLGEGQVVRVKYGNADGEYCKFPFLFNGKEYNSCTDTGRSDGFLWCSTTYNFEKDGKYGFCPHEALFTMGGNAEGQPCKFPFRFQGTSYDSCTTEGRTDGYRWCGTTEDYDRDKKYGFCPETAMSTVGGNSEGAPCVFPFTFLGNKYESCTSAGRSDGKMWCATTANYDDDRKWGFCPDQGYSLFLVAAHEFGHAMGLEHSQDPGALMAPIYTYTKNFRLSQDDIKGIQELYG

MMP13 = MMP13 (Homo sapiens, UniProt P45452); assay: MMP assay; assay type: biochemical; conditions: 10µM
MMP1 = molecular target: T1, MMP1 (Homo sapiens, UniProt P03956); assay: MMP assay; assay type: biochemical; conditions: 10µM
T1 sequence (P03956 100-269 limits assumed): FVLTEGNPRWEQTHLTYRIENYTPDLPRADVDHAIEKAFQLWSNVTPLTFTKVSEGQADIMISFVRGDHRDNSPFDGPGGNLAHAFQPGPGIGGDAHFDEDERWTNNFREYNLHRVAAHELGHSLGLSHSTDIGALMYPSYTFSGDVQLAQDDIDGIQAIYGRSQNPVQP

MMP9 = MMP9 (Homo sapiens, UniProt P14780); assay: MMP assay; assay type: biochemical; conditions: 10µM
MMP9, sequence (P14780 107-444 limits assumed): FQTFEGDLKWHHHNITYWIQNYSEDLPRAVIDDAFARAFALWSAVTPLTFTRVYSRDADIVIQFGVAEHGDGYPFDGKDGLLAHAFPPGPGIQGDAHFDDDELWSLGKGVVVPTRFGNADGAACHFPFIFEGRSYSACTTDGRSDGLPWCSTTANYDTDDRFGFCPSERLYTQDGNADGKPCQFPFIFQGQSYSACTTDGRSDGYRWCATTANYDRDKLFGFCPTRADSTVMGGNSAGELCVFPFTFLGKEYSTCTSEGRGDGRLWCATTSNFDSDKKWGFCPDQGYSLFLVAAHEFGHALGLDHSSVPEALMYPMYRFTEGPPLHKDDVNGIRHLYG

HDAC1 = HDAC1 (Homo sapiens, UniProt Q13547); assay: HDAC inhibition by SAMDI mass spectrometry, HDAC1; assay type: biochemical
HDAC1, sequence (Q13547 whole entry): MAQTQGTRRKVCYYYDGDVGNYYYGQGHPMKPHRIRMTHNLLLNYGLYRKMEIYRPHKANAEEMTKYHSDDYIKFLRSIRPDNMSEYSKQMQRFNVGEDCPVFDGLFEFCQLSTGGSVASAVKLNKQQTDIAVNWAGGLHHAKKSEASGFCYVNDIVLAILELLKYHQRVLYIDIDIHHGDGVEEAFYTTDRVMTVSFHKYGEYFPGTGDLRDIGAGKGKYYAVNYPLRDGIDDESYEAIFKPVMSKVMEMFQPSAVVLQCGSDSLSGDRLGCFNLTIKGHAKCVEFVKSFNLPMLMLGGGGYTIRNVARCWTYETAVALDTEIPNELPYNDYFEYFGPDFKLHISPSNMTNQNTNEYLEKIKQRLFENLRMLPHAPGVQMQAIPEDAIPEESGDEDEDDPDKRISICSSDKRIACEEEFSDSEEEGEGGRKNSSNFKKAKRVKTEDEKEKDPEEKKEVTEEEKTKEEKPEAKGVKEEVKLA

MMP7 = molecular target: T2, MMP7 (Homo sapiens, UniProt P09237); assay: MMP assay; assay type: biochemical; conditions: 10µM
T2 sequence (P09237 95-267): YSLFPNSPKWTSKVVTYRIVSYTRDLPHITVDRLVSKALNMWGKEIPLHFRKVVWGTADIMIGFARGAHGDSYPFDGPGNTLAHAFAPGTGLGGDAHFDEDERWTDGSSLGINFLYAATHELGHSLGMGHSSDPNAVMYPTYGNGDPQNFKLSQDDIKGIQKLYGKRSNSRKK

[1] = test system: tubulin acetylation (HDAC6 inhibition) in LNCaP cell line; assay: Western blot analysis for tubulin acetylation; assay type: cell-based; conditions: LNCaP cells, 4 hours, 20 µM and IC50 concentration
MMP3 = MMP3 (Homo sapiens, UniProt P08254); assay: MMP assay; assay type: biochemical; conditions: 10µM
MMP3, sequence (P08254 100-272 limits assumed): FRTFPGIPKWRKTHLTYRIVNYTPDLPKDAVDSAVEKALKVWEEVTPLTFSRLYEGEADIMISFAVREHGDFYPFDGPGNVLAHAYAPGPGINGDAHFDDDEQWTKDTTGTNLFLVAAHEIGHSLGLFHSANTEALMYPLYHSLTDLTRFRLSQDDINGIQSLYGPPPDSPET

DU-145 = assay: Cell viability assay; assay type: cell-based; conditions: for Fold less cytotoxic than 14e, DU145: compared with 14e
HDAC6 = molecular target: T3, HDAC6 (Homo sapiens, UniProt Q9UBN7); assay: HDAC inhibition by SAMDI mass spectrometry, HDAC6; assay type: biochemical
T3 sequence (Q9UBN7 1-1215): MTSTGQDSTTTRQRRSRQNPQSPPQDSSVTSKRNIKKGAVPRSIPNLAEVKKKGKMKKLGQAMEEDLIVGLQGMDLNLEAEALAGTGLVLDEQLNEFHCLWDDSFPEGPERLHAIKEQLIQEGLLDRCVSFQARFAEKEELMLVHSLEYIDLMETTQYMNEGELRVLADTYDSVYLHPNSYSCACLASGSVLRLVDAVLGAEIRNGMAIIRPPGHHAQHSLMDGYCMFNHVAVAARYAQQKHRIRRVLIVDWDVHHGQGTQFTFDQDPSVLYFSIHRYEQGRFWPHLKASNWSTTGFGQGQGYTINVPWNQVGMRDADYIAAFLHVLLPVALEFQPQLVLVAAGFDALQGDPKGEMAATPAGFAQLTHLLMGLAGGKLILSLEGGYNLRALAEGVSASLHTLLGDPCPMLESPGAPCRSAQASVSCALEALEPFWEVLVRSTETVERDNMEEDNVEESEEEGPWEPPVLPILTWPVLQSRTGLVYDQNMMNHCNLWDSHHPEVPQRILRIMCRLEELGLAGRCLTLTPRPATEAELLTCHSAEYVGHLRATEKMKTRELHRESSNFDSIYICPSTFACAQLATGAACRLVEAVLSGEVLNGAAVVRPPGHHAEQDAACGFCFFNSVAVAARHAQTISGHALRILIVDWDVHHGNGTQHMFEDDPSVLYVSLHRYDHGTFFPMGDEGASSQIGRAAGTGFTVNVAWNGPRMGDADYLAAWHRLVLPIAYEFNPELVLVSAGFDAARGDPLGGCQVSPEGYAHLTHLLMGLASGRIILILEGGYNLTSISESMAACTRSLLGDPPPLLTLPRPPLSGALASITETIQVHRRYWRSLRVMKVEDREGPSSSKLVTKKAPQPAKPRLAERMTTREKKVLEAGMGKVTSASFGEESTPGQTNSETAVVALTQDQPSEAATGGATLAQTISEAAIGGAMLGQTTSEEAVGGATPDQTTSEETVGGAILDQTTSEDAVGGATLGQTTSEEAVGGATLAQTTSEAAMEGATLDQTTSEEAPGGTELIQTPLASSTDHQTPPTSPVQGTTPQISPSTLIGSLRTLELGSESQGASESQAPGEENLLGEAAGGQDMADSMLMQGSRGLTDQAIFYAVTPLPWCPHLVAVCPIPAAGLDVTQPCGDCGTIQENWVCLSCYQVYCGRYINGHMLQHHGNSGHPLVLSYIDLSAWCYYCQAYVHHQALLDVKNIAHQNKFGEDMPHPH

Jurkat = assay: Cell viability assay; assay type: cell-based

| Structure (SMILES) | Activity against Jurkat Jγ, in words (Jurkat J.γ) | Effect on MMP14 activity (MMP14) | Effect on MMP2 activity (MMP2) | Effect on MMP13 activity (MMP13) | Effect on MMP1 activity (MMP1) | Effect on MMP9 activity (MMP9) | HDAC1 inhibition, in words (HDAC1) | Effect on MMP7 activity (MMP7) | Tubulin acetylation level (Western blot) [1] | Effect on MMP3 activity (MMP3) | Fold less cytotoxic than 14e, DU145 (DU-145) | other results |
| --- | --- | --- | --- | --- | --- | --- | --- | --- | --- | --- | --- | --- |
| CN1CCc2c(c3ccccc3n2Cc2ccc(C(=O)NO)cc2)C1 [Tubastatin A, reference compound] | inactive | – | – | – | – | – | – | – | – | – | – | Fold less potent than 10d and 14e, LNCaP (LNCaP; relative to 10d and 14e): 2 to 3 fold |
| Oc1cccn(CCCCCn2cc(-c3ccccc3)nn2)c1=S [Compound 10d, 1-Phenyltriazolylpentyl-3-hydroxypyridin-2-thione] | – | inactive | inactive | halved | inactive | inactive | inactive | inactive | increased tubulin acetylation but to a lesser extent than SAHA | inactive | – | IC50 (Jurkat J.γ; Homo sapiens, Jurkat, 72 h, read-out: Cellular IC50 Jurkat J.γ, 72 hours, MTS): 1000 nM |
| O=C(CCCCCCC(=O)Nc1ccccc1)NO [SAHA, suberoylanilide hydroxamic acid] | inactive | – | – | – | – | – | – | – | – | – | – | – |
| N#Cc1cccc(-c2cn(CCCCCn3cccc(O)c3=S)nn2)c1 [Compound 14e, 1-(3-Benzonitrile)triazolylpentyl-3-hydroxypyridin-2-thione] | – | inactive | inactive | halved | inactive | inactive | inactive | inactive | increased tubulin acetylation but to a lesser extent than SAHA | inactive | – | Fold more potent than 10d, DU145 (DU-145; relative to 10d): about 2 fold; HDAC6 potency, fold more effective than 14b (HDAC6; relative to 14b): 3 fold; HDAC6 potency, fold more effective than 10d (HDAC6; relative to 10d): 2.5 fold and 3 fold; Fold more potent than 10d, LNCaP (LNCaP; relative to 10d): about 2 fold |
| Oc1cccn(CCCCCCCn2cc(-c3ccccc3)nn2)c1=S [Compound 10f, 1-Phenyltriazolylheptyl-3-hydroxypyridin-2-thione] | – | – | – | – | – | – | – | – | – | – | 3 fold | Fold less cytotoxic than 10d, DU145 (DU-145; compared with 10d): 2 fold; Fold less cytotoxic than 14e, wild type Jurkat (Jurkat; relative to 14e): 3 fold; Fold less cytotoxic than 10d, wild type Jurkat (Jurkat; relative to 10d): 3 fold; Fold less cytotoxic than 14e, LNCaP (LNCaP; compared with 14e): 3 fold; Fold less cytotoxic than 10d, LNCaP (LNCaP; compared with 10d): 2 fold |
| Cc1ccccc1-c1cn(CCCCCn2cccc(O)c2=S)nn1 [Compound 14c, 1-(2-Tolyl)triazolylpentyl-3-hydroxypyridin-2-thione] | – | – | – | – | – | – | – | – | – | – | 2 fold | – |
